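Five compound concentrations were applied to cells in 96-well plates for 48 hours; endpoints were derived by simple linear interpolation of the resulting dose-response curve. Abbreviation: GI50, concentration required for 50% inhibition of growth. The concentration for full growth arrest is given as TGI.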
Legend:
Experiment in all cases: NCI tumour cell line growth inhibition, 48 h
786-0 renal = test system: 786-0 renal
A549 NSCLC = test system: A549 NSCLC
ACHN renal = test system: ACHN renal
CAKI-1 renal = test system: CAKI-1 renal
CCRF-CEM leukemia = test system: CCRF-CEM leukemia
COLO 205 colon = test system: COLO 205 colon
DU-145 prostate = test system: DU-145 prostate
EKVX NSCLC = test system: EKVX NSCLC
HCC-2998 colon = test system: HCC-2998 colon
HCT-116 colon = test system: HCT-116 colon
HCT-15 colon = test system: HCT-15 colon
HL-60(TB) leukemia = test system: HL-60(TB) leukemia
HOP-62 NSCLC = test system: HOP-62 NSCLC
HOP-92 NSCLC = test system: HOP-92 NSCLC
HT29 colon = test system: HT29 colon
IGROV1 ovarian = test system: IGROV1 ovarian
K-562 leukemia = test system: K-562 leukemia
KM12 colon = test system: KM12 colon
LOX IMVI melanoma = test system: LOX IMVI melanoma
M14 melanoma = test system: M14 melanoma
MALME-3M melanoma = test system: MALME-3M melanoma
MCF7 breast = test system: MCF7 breast
MDA-MB-231 breast = test system: MDA-MB-231 breast
MDA-MB-435 = test system: MDA-MB-435
MOLT-4 leukemia = test system: MOLT-4 leukemia
NCI-H23 lung = test system: NCI-H23 lung
NCI-H522 lung = test system: NCI-H522 lung
NCI/ADR-RES ovarian = test system: NCI/ADR-RES ovarian
OVCAR-3 ovarian = test system: OVCAR-3 ovarian
OVCAR-4 ovarian = test system: OVCAR-4 ovarian
OVCAR-5 ovarian = test system: OVCAR-5 ovarian
OVCAR-8 ovarian = test system: OVCAR-8 ovarian
PC-3 prostate = test system: PC-3 prostate
RPMI-8226 leukemia = test system: RPMI-8226 leukemia
SF-268 CNS = test system: SF-268 CNS
SF-295 CNS = test system: SF-295 CNS
SF-539 CNS = test system: SF-539 CNS
SK-MEL-2 melanoma = test system: SK-MEL-2 melanoma
SK-MEL-28 melanoma = test system: SK-MEL-28 melanoma
SK-OV-3 ovarian = test system: SK-OV-3 ovarian
SN12C renal = test system: SN12C renal
SNB-19 CNS = test system: SNB-19 CNS
SNB-75 CNS = test system: SNB-75 CNS
SR leukemia = test system: SR leukemia
T-47D breast = test system: T-47D breast
TK-10 renal = test system: TK-10 renal
U251 CNS = test system: U251 CNS
UACC-257 melanoma = test system: UACC-257 melanoma
UACC-62 melanoma = test system: UACC-62 melanoma
UO-31 renal = test system: UO-31 renal

Molecule `O=C(C(=O)c1cc(Br)ccc1O)c1cc(Br)ccc1O` has a GI50 (786-0 renal) of 3.87 µM, a TGI (786-0 renal) of 13.7 µM and a GI50 (A549 NSCLC) of 4.16 µM. For the same molecule, the TGI (A549 NSCLC) was 22.3 µM, the GI50 (ACHN renal) was 3.75 µM and the TGI (ACHN renal) was 50 µM. It also gave a GI50 (CAKI-1 renal) of 2.16 µM, a TGI (CAKI-1 renal) of 6.05 µM and a GI50 (CCRF-CEM leukemia) of 5.5 µM. The TGI (CCRF-CEM leukemia) was > 100 µM, the GI50 (COLO 205 colon) was 18.6 µM and the TGI (COLO 205 colon) was 44.5 µM. For the same molecule, the GI50 (DU-145 prostate) was 3.66 µM, the TGI (DU-145 prostate) was 18.5 µM and the GI50 (EKVX NSCLC) was 2.03 µM. For the same molecule, the TGI (EKVX NSCLC) was 7.52 µM, the GI50 (HCC-2998 colon) was 4.75 µM and the TGI (HCC-2998 colon) was 18.6 µM. The GI50 (HCT-116 colon) was 3.38 µM, the TGI (HCT-116 colon) was 12.7 µM and the GI50 (HCT-15 colon) was 4.05 µM. For the same molecule, the TGI (HCT-15 colon) was 24.1 µM, the GI50 (HL-60(TB) leukemia) was 2.2 µM and the TGI (HL-60(TB) leukemia) was 6.16 µM. It also gave a GI50 (HOP-62 NSCLC) of 6.51 µM, a TGI (HOP-62 NSCLC) of 34.9 µM and a GI50 (HOP-92 NSCLC) of 1.48 µM. For the same molecule, the TGI (HOP-92 NSCLC) was 5.58 µM, the GI50 (HT29 colon) was 14.6 µM and the TGI (HT29 colon) was > 100 µM. It also gave a GI50 (IGROV1 ovarian) of 2.57 µM, a TGI (IGROV1 ovarian) of 8.58 µM and a GI50 (K-562 leukemia) of 2.82 µM. The TGI (K-562 leukemia) was > 100 µM, the GI50 (KM12 colon) was 3.21 µM and the TGI (KM12 colon) was 11.4 µM. For the same molecule, the GI50 (LOX IMVI melanoma) was 3.48 µM, the TGI (LOX IMVI melanoma) was 13.6 µM and the GI50 (M14 melanoma) was 4.96 µM. The TGI (M14 melanoma) was 20.1 µM, the GI50 (MALME-3M melanoma) was 2.24 µM and the TGI (MALME-3M melanoma) was 6.12 µM. The GI50 (MCF7 breast) was 7.34 µM, the TGI (MCF7 breast) was > 100 µM and the GI50 (MDA-MB-231 breast) was 5.33 µM. For the same molecule, the TGI (MDA-MB-231 breast) was 23 µM, the GI50 (MDA-MB-435) was 2.84 µM and the TGI (MDA-MB-435) was 9.25 µM. The GI50 (MOLT-4 leukemia) was 3.28 µM, the TGI (MOLT-4 leukemia) was 19.9 µM and the GI50 (NCI-H23 lung) was 3.38 µM. For the same molecule, the TGI (NCI-H23 lung) was 19.1 µM, the GI50 (NCI-H522 lung) was 2.94 µM and the TGI (NCI-H522 lung) was 9.3 µM. The GI50 (NCI/ADR-RES ovarian) was 3.36 µM, the TGI (NCI/ADR-RES ovarian) was > 100 µM and the GI50 (OVCAR-3 ovarian) was 2.84 µM. The TGI (OVCAR-3 ovarian) was 9.32 µM, the GI50 (OVCAR-4 ovarian) was 6.04 µM and the TGI (OVCAR-4 ovarian) was > 100 µM. The GI50 (OVCAR-5 ovarian) was 22.2 µM, the TGI (OVCAR-5 ovarian) was 74.8 µM and the GI50 (OVCAR-8 ovarian) was 7.46 µM. It also gave a TGI (OVCAR-8 ovarian) of 40.5 µM, a GI50 (PC-3 prostate) of 3.13 µM and a TGI (PC-3 prostate) of 15.7 µM. The GI50 (RPMI-8226 leukemia) was 2.71 µM, the TGI (RPMI-8226 leukemia) was 88.2 µM and the GI50 (SF-268 CNS) was 3.41 µM. For the same molecule, the TGI (SF-268 CNS) was 21.1 µM, the GI50 (SF-295 CNS) was 1.98 µM and the TGI (SF-295 CNS) was 6.27 µM. For the same molecule, the GI50 (SF-539 CNS) was 4.01 µM, the TGI (SF-539 CNS) was 18.6 µM and the GI50 (SK-MEL-2 melanoma) was 3.88 µM. For the same molecule, the TGI (SK-MEL-2 melanoma) was 13.3 µM, the GI50 (SK-MEL-28 melanoma) was 8 µM and the TGI (SK-MEL-28 melanoma) was > 100 µM. It also gave a GI50 (SK-OV-3 ovarian) of 4.42 µM, a TGI (SK-OV-3 ovarian) of 30.2 µM and a GI50 (SN12C renal) of 3.47 µM. The TGI (SN12C renal) was 90.9 µM, the GI50 (SNB-19 CNS) was 4.39 µM and the TGI (SNB-19 CNS) was > 100 µM. For the same molecule, the GI50 (SNB-75 CNS) was 3.26 µM, the TGI (SNB-75 CNS) was 29.4 µM and the GI50 (SR leukemia) was 3.15 µM. For the same molecule, the TGI (SR leukemia) was 53.2 µM, the GI50 (T-47D breast) was 3.87 µM and the TGI (T-47D breast) was > 100 µM. For the same molecule, the GI50 (TK-10 renal) was 3.44 µM, the TGI (TK-10 renal) was 17.9 µM and the GI50 (U251 CNS) was 2.8 µM. It also gave a TGI (U251 CNS) of 9.94 µM, a GI50 (UACC-257 melanoma) of 2.21 µM and a TGI (UACC-257 melanoma) of 8.43 µM. The GI50 (UACC-62 melanoma) was 3.94 µM, the TGI (UACC-62 melanoma) was 17 µM and the GI50 (UO-31 renal) was 1.97 µM. It also gave a TGI (UO-31 renal) of 6.51 µM.

Reference: PubChem BioAssay (NCI)
